Patent publication US10406120B2, “Methods and compositions for treating kidney disorders” (Golden Biotechnology Corporation, priority 2013, dated 2019)

Experiments:
apoptosis in the kidney = assay: AcP-IgAN model: apoptosis in the kidney (TUNEL); format: in vivo, B cell-deficient mice
Experimental: (§1) B cell-deficient mice (B6.129S2-Igh-6tm1Cgn/J) were obtained from the Academia Sinica (Professor John T. Kung, Institute of Molecular Biology), and maintained at the animal center of the National Defense Medical Center, Taipei, Taiwan. AcP-IgAN was induced in the mice by daily injection of purified IgA anti-phosphorylcholine antibodies and pneumococcal C-polysaccharide (PnC) as described previously (Chao, et al., Kidney Int. 70:283-297; 2006). All animal experiments were performed with the approval of the Institutional Animal Care and Use Committee of The National Defense Medical Center, Taiwan, and were consistent with the NIH Guide for the Care and Use of Laboratory Animals.
For the detection of apoptosis, terminal deoxynucleotidyl transferase-mediated dUTP nick-end labeling (TUNEL) was employed. Formalin-fixed and paraffin-embedded tissue sections were stained with ApopTag plus peroxidase in situ apoptosis detection kit (Chemicon, CA) according to the manufacturer's instructions. For scoring, the cortical renal area (including glomerular and peri-glomerular areas) were examined and expressed as cells/glomerular cross-section.

NF-κB p65 = assay: FSGS model: renal NF-κB activation (IHC, ELISA); format: in vivo, BALB/c mice; details: FSGS mice
Experimental: (§2) Experiments described herein were performed on 8-week-old female BALB/c mice. The FSGS mice were injected intravenously with a single dose of adriamycin (0.1 mg/10 g body weight). The mice were given Compound 1 six hours before adriamycin injection by gavage daily till sacrifice. BALB/c mice intraperitoneal injected with normal saline were used as normal controls, while ASLN mice given vehicle (corn oil) by gavage were used as disease controls. Mice were killed at day 7, 14, or 21 after disease induction, and spleen, renal cortical tissue, and blood samples collected and stored appropriately until analysis. All animal experiments were performed with the ethical approval of the Institutional Animal Care and Use Committee of The National Defense Medical Center, Taiwan and performed according to the ethical rules in the NIH Guide for the Care and Use of Laboratory Animals.
(§3) For IHC, formalin-fixed and paraffin-embedded renal sections were prepared and incubated with primary antibodies against mouse Desmin (Lab Vision, CA, USA), CD3 (pan-T cell; Serotec, N.C., USA), F4/80 (monocytes/macrophages; Serotec), IL-6 (R&D Systems, MN, USA), NF-κB p65 (Cell Signaling Technology, MA, USA), collagen I, III, and IV (Southern Biotech, AL, USA), or TGF-β1 (Santa Cruz Biotechnology, CA, USA), biotinylated second antibodies (Dako, Glostrup, Denmark), and avidin-biotin-peroxidase complex (Dako). Semi-quantitative evaluation of staining was performed.
Nuclear proteins were extracted using a nuclear extract kit (Active Motif, Japan). Phospho-NF-κB p65 and nuclear factor-erythroid-2-related factor 2 (NrF2) were measured in renal tissue nuclear protein extracts using Trans-AM ELISA assay kits (Active Motif), according to the manufacturer's instructions. Renal cytosolic protein extracts using RIPA buffer (Cell signaling). Cytosolic glutathione peroxidase (GPx) (Cayman, Mich.) and cytosolic heme oxygenase-1 (HO-1) (Enzo Life Sciences, NY) were measured using commercial ELISA kits according to the manufacturer's instructions. Both were expressed relative to the protein concentration in the lysate.

Nrf2 = assay: FSGS model: Western blot of nuclear Nrf2 in kidney; format: in vivo, BALB/c mice; details: FSGS mice, day 14 to day 21, vs control FSGS mice or normal controls
Experimental: as §2
The preparation of cytoplasmic and nuclear proteins of renal tissues was extracted using the Nuclear Extract Kit (Active Motif, Tokyo, Japan) according to the manufacturer's instructions. Target proteins in the cytoplasmic and/or nuclear fractions of kidney tissue were measured by Western blot analysis using rabbit antibodies against mouse Nrf2, or p47^phox (Santa Cruz). […]

collagen I, III, and IV = assay: FSGS model: renal collagen accumulation (IHC); format: in vivo, BALB/c mice; details: FSGS mice
Experimental: as §2, §3

splenocytes = assay: AcP-IgAN model: flow cytometry of T cell activation in splenocytes; format: in vivo, B cell-deficient mice; details: AcP-IgAN mice
Experimental: as §1
Splenocytes from the mice were treated with Tris-buffered ammonium chloride to eliminate erythrocytes, washed, resuspended in RPMI 1640 supplemented with 10% fetal calf serum, HEPES buffer, L-glutamine, and penicillin/streptomycin (all from Invitrogen). The cells were stained with either surface marker for T or B cell activation. FITC-conjugated anti-mouse CD3, CD4, CD8, or CD19 (B cell) antibodies and phycoerythrin (PE)-conjugated anti-mouse CD69 antibodies (all from BD Biosciences) were analyzed with FACSCalibur (BD Biosciences).

NLRP3 = assay: AcP-IgAN model: renal NLRP3 mRNA and protein; format: in vivo, B cell-deficient mice; details: AcP-IgAN mice
Experimental: as §1
Total cortical kidney RNA was extracted with TriZOL reagents (Invitrogen) from cortical tissue of the kidney. For first-strand cDNA synthesis, 1.5 μg of total RNA was used in a single-round reverse transcriptase reaction. The reaction mixture consisted of 0.9 μl of Oligo (dT) 12 to 18 primer, 1.0 mM deoxyribonucleotide triphosphate (dNTP), 1 μl first strand buffer, 0.4 mM dithiothreitol, 80 U of RNaseout recombinant ribonuclease inhibitor, and 300 U of superscript II RNase H (Invitrogen). Real-time PCR was performed on an ABI Prism 7700 Sequence Detection System (Applied Biosystems, CA). All of the probes and primers were Assays-on-Demand Gene expression products (Applied Biosystems). Real-time PCR reactions were using 10 μl of cDNA, 12.5 μl of TaqMan Universal PCR Master Mix (Applied Biosystems), and 1.25 μl of the specific probe/primer mixed in a total volume of 25 μl. The thermal cycler conditions were as follows: 2 min at 50° C., 10 min at 95° C., 40 cycles of denaturation (15 s at 95° C.), and combined annealing/extension (1 min at 60° C.).
Each protein sample was run on a 10% SDS-PAGE gel. […] The membrane-bound antibody detected was incubated with chemiluminescent reagent plus (PerkinElmer Life Sciences, MA) and captured on x-ray film.

[1] = day 14 to day 21, vs control FSGS mice
[2] = day 3, vs control AcP-IgAN mice

SMILES: COC1=C(OC)[C@H](O)[C@H](C/C=C(\C)CC/C=C(\C)CCC=C(C)C)[C@@H](C)C1=O [Compound 1, Antroquinonol]
- apoptosis in the kidney (TUNEL), increase (apoptosis in the kidney; AcP-IgAN mice, day 28, vs control AcP-IgAN mice): greatly inhibited
- apoptosis in the kidney (TUNEL) (apoptosis in the kidney; all the mice examined, day 3): inconspicuous apoptosis
- nuclear protein expression of NF-κB p65 (ELISA, renal nuclear extracts) (NF-κB p65; day 7): no significant difference
- nuclear protein expression of NF-κB p65 (ELISA, renal nuclear extracts) (NF-κB p65; day 14): slightly blocked
- NF-κB activation, nuclear NF-κB p65 expression (IHC) (NF-κB p65; day 14 and day 21, vs control FSGS mice): markedly inhibited
- nuclear protein expression of NF-κB p65 (ELISA, renal nuclear extracts) (NF-κB p65; day 21): significantly inhibited
- Nrf2 translocation into nuclei (Nrf2): strongly augmented
- renal expression of collagen I (IHC) (collagen I, III, and IV; [1]): significant suppression
- renal expression of collagen IV (IHC) (collagen I, III, and IV; [1]): significant suppression
- renal expression of collagen III (IHC) (collagen I, III, and IV; day 21, vs control FSGS mice): significant suppression
- percentage of CD3^+/CD69^+ T cells in splenocytes (splenocytes; [2]): significant reduction
- percentage of CD4^+/CD69^+ T cells in splenocytes (splenocytes; [2]): no significant difference
- percentage of CD8^+/CD69^+ T cells in splenocytes (splenocytes; [2]): no significant difference
- percentage of each of the three subtypes of T cells (CD3^+/CD69^+, CD4^+/CD69^+, CD8^+/CD69^+) (splenocytes; day 28): no different from that of normal controls
- protein levels of NLRP3 in the kidney (increase) (NLRP3; both day 3 and day 28, vs AcP-IgAN mice): significantly inhibited
- renal NLRP3 mRNA expression levels (NLRP3; day 3): no effects
- renal mRNA levels of NLRP3 (NLRP3; day 28, vs control AcP-IgAN mice): substantially reduced
